{"source": "patent US20250152559A1", "about": "“METHODS FOR TREATING MYC-AMPLIFIED CANCER” (The Governing Council of the University of Toronto, priority 2023, published 2025)", "key": {"[1]": {"tested_on": "p-4EBP1 and EGR1 expression in PDOX", "test": "IHC of time-matched PDOX from brains of treated mice", "type": "in vivo", "conditions": "PDOX after final dose, vs vehicle-treated PDOX", "procedure": "To determine whether mechanisms identified in vitro extend to the in vivo orthotopic model, time-matched PDOX were isolated from the brains of BAY-treated mice after the final dose of BAY was administered. […] An infrequent EGR1^+ subpopulation of tumor cells was also detected, which varied in the levels of nuclear EGR1 expression (FIG. 10H).\nFFPE tissues were sectioned onto slides and then deparaffinized prior to analysis. Samples were stained with H&E for histological examination. In parallel, sections were blocked in 5% BSA (anti-Ki67, anti-4E-BP1 Thr37/46, anti-DHODH) or 5% NGS (anti-EGR1) and stained with primary antibody at 4° C. overnight. Rabbit anti-Ki67 (Thermo Fisher Scientific; Catalogue #RM-9106-S0) was diluted 1:100, rabbit anti-EGR1 (Cell Signaling Technologies; catalogue #4145) was diluted 1:200, rabbit anti-4E-BP1 Thr37/46 (Cell Signaling Technologies; catalogue #2855) was diluted 1:1000, and rabbit anti-DHODH (Proteintech 14877-1-AP) was diluted 1:200. Anti-rabbit HRP-conjugated secondary antibodies (Abcam; Catalogue #ab214880) were used with DAB for development (Vector Laboratories; Catalogue #SK-4100). All slides were scanned using Image Scope (Aperio)."}, "[2]": {"test": "Parallel artificial membrane permeability assay (PAMPA) for blood-brain barrier", "type": "in vitro ADME", "source_text": "The capacity of BQR and BAY to permeate the blood-brain barrier was first examined using the in vitro parallel artificial membrane permeability assay (PAMPA)^48 (FIG. 5A)."}, "[3]": {"test": "Pharmacokinetic analysis of BAY2402234 in plasma and brain by LC-MS", "type": "in vivo", "conditions": "healthy mice undergoing treatment", "procedure": "In parallel to these experiments, subcutaneous flank xenografts were engrafted into two cohorts of mice, which were treated with the vehicle or R2. […] To investigate the pharmacokinetics of BAY in vivo, its concentration in plasma and brain tissues of healthy mice was directly quantified using an LC-MS approach. BAY was detected in both brains and plasma of mice undergoing treatment, however the plasma concentrations exceeded those of the brain by approximately 10-fold (FIG. 5H-I). To determine whether treatment with BAY affects de novo pyrimidine biosynthesis in vivo, changes in pyrimidine metabolism were measured in the brain in comparison to tumor tissues from the flank (FIG. 5J-K). Although BAY treatment impacted de novo pyrimidine metabolism in vivo in both brain and tumor tissues, with a similar pattern observed in vitro (FIG. 4A), the effect size was stronger in peripheral tumor tissue in comparison to brain tissue. Such findings further reflect the limited capacity for BAY to accumulate within the brain.\nStandards and samples were extracted by the addition of organic solvent, containing the internal standard (IS), for protein precipitation. […] Brains were analyzed similarly, with 20 μL of sample transferred to 180 μL of IS solution prior to analysis via LC-MS."}}, "data": [{"smiles": "CCn1c(CO)nn(-c2cc(O[C@@H](C)C(F)(F)F)c(C(=O)Nc3c(F)cccc3Cl)cc2F)c1=O", "note": "[BAY2402234]", "values": [{"measurement": "EGR1 expression (IHC)", "setting": "[1]", "value": "induced EGR1 expression"}, {"measurement": "p-4EBP1 expression (IHC)", "setting": "[1]", "value": "decreased p-4EBP1 expression"}, {"measurement": "penetration coefficient (log PE)", "setting": "[2]", "value": "superior penetration coefficient (log PE) compared to BQR"}, {"measurement": "plasma concentration relative to brain concentration", "setting": "[3]", "value": "approximately 10 fold"}]}]}
